Experimental data published in PMC10412585 (Nature Communications, 2023).

Experiments:
CD94/NKG2C = test: Steady-state SPR of peptide-HLA-E single chain trimers with CD94/NKG2C; format: binding, human; details: from Figure 5C KD values, stated in author rebuttal
Experimental: (§1) Specifically, we measured CD94/NKG2A and CD94/NKG2C affinity for HLA-E complexed with three sets of peptides. […] Third, we included […] peptide as a positive control.
(§2) Steady-state surface plasmon resonance experiments were performed with a Biacore T200 instrument. CD94/NKG2x in HBS-EP+ buffer was injected as analyte in a concentration range of 0.1 μM to 102.4 μM and flow rate of 10 μL/min at 25 °C. Data was fit with Prism 9.4 (GraphPad Software Inc; San Diego CA) to a “one site, specific binding” model. Sensorgrams are included in Supplemental Fig. 13.
(§3) For investigating WN peptides, biotinylated pMHC was immobilized at approximately 400 Response Units (RU) on a Series S SA sensor chip (Cytiva). […] CD94/NKG2A was injected followed by CD94/NKG2C.
(§4) For investigating human-derived peptides, Series S CM5 chips (Cytiva) were coupled to neutravidin and utilized. Biotinylated pMHC was immobilized at approximately 400 RU. On one chip, […] CD94/NKG2A was injected followed by CD94/NKG2C. On a second chip, PISD55-63 HLA-E SCT, AKAP6_388-396 HLA-E SCT, GTF3C5_293-301 HLA-E SCT, and reference HLA-DR401 were immobilized. CD94/NKG2C was injected followed by CD94/NKG2A. Rmax, fit values were calculated by Biacore software. Rmax, theoretical values were calculated using the analyte/ligand mass ratio (0.66) multiplied by the amount of ligand coupled to the chip.

CD94/NKG2A = target: T1, CD94/NKG2A (Homo sapiens, UniProt P26715+Q13241); test: Steady-state SPR of peptide-HLA-E single chain trimers with CD94/NKG2A; format: binding; details: SPR with CD94/NKG2A and CD94/NKG2C, Fig. 5B; taken as lower stability of the peptide-HLA-E complex
T1 construct: The C-terminus of human NKG2A or NKG2C ectodomain was connected via a GGSGGS linker to human CD94 ectodomain; AviTag biotinylation tag (C); poly-histidine tag (C); made in house; host or cells: baculovirus, High Five (Hi5) insect cells
T1 sequence (Q13241 whole entry, looked up, the tested form may be a part): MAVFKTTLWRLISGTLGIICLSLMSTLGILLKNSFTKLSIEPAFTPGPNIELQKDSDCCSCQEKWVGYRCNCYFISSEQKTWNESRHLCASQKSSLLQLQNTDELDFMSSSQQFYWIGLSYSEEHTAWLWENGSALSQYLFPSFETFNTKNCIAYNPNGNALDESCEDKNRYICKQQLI
T1 sequence (P26715 whole entry, looked up, the tested form may be a part): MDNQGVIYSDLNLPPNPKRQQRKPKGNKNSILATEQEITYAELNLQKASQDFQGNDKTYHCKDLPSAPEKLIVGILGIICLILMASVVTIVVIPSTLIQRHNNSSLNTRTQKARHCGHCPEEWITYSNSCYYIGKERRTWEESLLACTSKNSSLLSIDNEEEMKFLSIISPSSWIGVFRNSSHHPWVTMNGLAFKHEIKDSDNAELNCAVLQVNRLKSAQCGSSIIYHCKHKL
Experimental: as §1, §2, §3, §4

NKG2A-/NKG2C+ NK cells = test: NK cell activation assay with peptide-pulsed K562/HLA-E cells, NKG2A-/NKG2C+ NK cells; format: cell-based, human; details: K562/HLA-E target cells, 300 µM peptide ([…] µM BFAR263-271), E:T 2:1, 6 h; degranulation (CD107a), IFN-γ, TNF, CCL3; flow cytometry
NKG2A+/NKG2C- NK cells = test: NK cell activation assay with peptide-pulsed K562/HLA-E cells, NKG2A+/NKG2C- NK cells; format: cell-based, human; details: K562/HLA-E target cells, 300 µM peptide ([…] µM BFAR263-271), E:T 2:1, 6 h; degranulation (CD107a), IFN-γ, TNF, CCL3; flow cytometry

## VMAPRTLFL [positive control]
CD94/NKG2C
  weaker affinity of CD94/NKG2C compared to CD94/NKG2A: ~ 3 fold
CD94/NKG2C; listed as VL9
  weaker affinity of CD94/NKG2C compared to CD94/NKG2A: ~ 2.7 fold

## VNPGRSLFL [BFAR263-271, human peptide from Bifunctional apoptosis regulator]
CD94/NKG2A
  maximal response units (Rmax) compared to theoretical maximum: lower maximal values compared to the theoretical maximum
NKG2A-/NKG2C+ NK cells
  activating effects on NKG2C+ cells: clear activating effects
NKG2A+/NKG2C- NK cells
  inhibitory effects on NKG2A+ cells: minimal inhibitory effects
